Experimental data as given in ChEMBL document CHEMBL2034875, “Bifunctionalized amphilectane diterpenes from the sponge Stylissa cf. massa” (J Nat Prod, 2012).
Activity calls are given as the source filed them. The rule behind the calls is not given here.

Columns and labels:
Plasmodium falciparum [1] = experiment: Antimalarial activity against Plasmodium falciparum K1 infected in human erythrocytes assessed as inhibition of [3H]hypoxanthine incorporation incubated for 24 hrs prior to hypoxanthine addition measured after 18 hrs by liquid scintillation counting; assay type: functional, organism-based
[2] = Cytotoxicity against human MCF7 cells assessed as growth inhibition at 25 ug/mL by SRB assay; assay type: cell-based; settings: read-out: GI
Plasmodium falciparum [3] = experiment: Antimalarial activity against Plasmodium falciparum K1 infected in human erythrocytes assessed as inhibition of [3H]hypoxanthine incorporation at 10 ug/mL incubated for 24 hrs prior to hypoxanthine addition measured after 18 hrs by liquid scintillation counting; assay type: functional, organism-based

Compound | IC50 (Plasmodium falciparum [1]) | inhibition at 25 ug/mL [2] | Activity (Plasmodium falciparum [3])
[C-]#[N+][C@@]12CCC(=C)[C@H]3[C@H](CC(C)(C)NC=O)C[C@H](C)[C@@H](CC[C@@H]1C)[C@@H]32 | 0.52 µM | < 50% | –
C=C1CC[C@@]2(N=C=S)[C@H]3[C@H](CC[C@@H]2C)[C@@H](C)C[C@@H](CC(C)(C)NC=O)[C@H]13 | 8.07 µM | < 50% | –
C=C(C)C[C@@H]1C[C@H](C)[C@H]2CC[C@](C)(NC=O)[C@H]3CCC(=C)[C@@H]1[C@H]23 | – | < 50% | inactive
C[C@H]1[C@@H](O)O[C@@H]2O[C@@]3(C)CC[C@H]4[C@H](C)CC[C@@H]1[C@@]24OO3 [ARTENIMOL] | 0.0038 µM | – | –
C=C1CC[C@@]2(N=C=O)[C@H]3[C@H](CC[C@@H]2C)[C@@H](C)C[C@@H](CC(C)(C)NC=O)[C@H]13 | 8.85 µM | < 50% | –
